Test results: patent US7381521B2, “Anti-pathogenic composition useful in blood preservation” (Altachem Pharma Ltd., priority 2001, dated 2008)

test system: erythrocytes in heparinized bovine blood; assay: In-vitro hemolysis of erythrocytes in heparinized whole blood, absorbance at 413 nm; conditions: 1 hour at 37° C.
Method: The effect of the compounds on the in-vitro hemolysis of erythrocytes in heparinized whole blood is monitored by a spectrophotometric method.
Various formulations and concentrations of the test compound are added to heparinized bovine blood and mixed gently in a 1.5 ml microcentrifuge tube. The sample is allowed to incubate for 1 hour at 37° C. At the end of incubation, the samples are removed from the incubator and centrifuged at 2000 rpm for 5 minutes. A 200 μl aliquot of the supernatant is removed from each sample into a 96 well microtiter plate and read at 413 nm. The absorbance of the test sample is compared to the control sample containing phosphate buffered saline, pH 7.2.

Molecule | Concentration at which hemolysis is not observed
Tergitol NP-9 | 0.001%
C[N+](C)(C)CCCCCC[N+](C)(C)C [Hexamethonium Bromide] | 0.0125%
C[N+](C)(C)CCCCCCCCCC[N+](C)(C)C.[I-].[I-] [Decamethonium Iodide] | 0.0125%
